Source: US20260272797A1, “FRAGRANCE COMPOSITION” (GIVAUDAN SA, priority 2023, published 2026)

How the values were obtained:
[1] = Impact of fragrance ingredients on scalp malodour counteractancy of 80 fragrance compositions (Example 2 protocol, statistical presence); settings: series of 80 fragrance compositions
Procedure: In a second set of experiments, the impact of these fragrance ingredients on the scalp malodour counteractancy of a fragrance composition was assessed. The scalp malodour counteractancy of a series of 80 fragrance compositions was assessed by performing the evaluation protocol described in Example 2. […] Ingredients that were statistically more present in fragrances having a high malodour counteractancy were assigned a positive status, whereas ingredients that were statistically more present in compositions having a low malodour counteractancy were assigned a negative status.

[2] = Gas-phase evaluation of each fragrance ingredient alone against model scalp malodour, MiniVAS device, panel of 5 experts; settings: for Scalp MOC of ingredient alone: expert description
Procedure: In a first set of experiments, the scalp malodour counteractancy of 173 fragrance ingredients was evaluated by panel of 5 experts.
The evaluation was performed in the gas phase, using a MiniVAS™ device (ex Givaudan SA). This device is a regulating means that comprises a plurality of channels adapted to convey a gas (more particularly air) through cartridges, each cartridge containing a fragrance ingredient adsorbed onto an adsorbent. The air flows coming from the different cartridges are admixed and conveyed to the user's nose through a tubing fitted with an olfactometer funnel. Thus, by opening and closing channels and maintaining these opened and closed, respectively, for predetermined times, the regulating means can determine which fragrance ingredients and how much thereof are conveyed and when, and thus alter the nature of the fragrance perceived by the user. A description of the device can be found in WO2014154909A1, page 2, line 11 to page 4, line 7, and in H. R. Gygax et al. “Evolution of Real Time Aroma Creation at Givaudan”, poster presented at the 12th Weurman Flavour Research Symposium. July 2008. Interlaken, Switzerland; DOI: 10.13140/2.1.1924.0641.
For the sake of the present evaluation, one cartridge contained the scalp malodour (in the form of a model malodour) and each fragrance ingredient was assigned to another cartridge. The malodour counteractancy of each fragrance ingredient was evaluated separately against the scalp malodour. A constant air flow rate of 50 ml/min was used for all measurements. The perceived malodour intensity, as well as the fragrance intensity, were ranked on a scale of 1-5 (1=barely noticeable, 2=weak, 3=medium, 4=strong and 5=very strong).

[3] = Table 4, air flow 50 ml/min, scale of 1-5
[4] = Table 3, air flow 50 ml/min, scale of 1-5 (1=barely noticeable, 5=very strong)

Molecule	Impact on scalp MOC of fragrance composition ([1]; Table 4)	MO intensity [2, 3]	Scalp MOC of ingredient alone ([2]; Table 4, gas phase)	Impact on scalp MOC of fragrance composition ([1]; Table 3)	MO intensity [2, 4]	Scalp MOC of ingredient alone ([2]; Table 3, gas phase)
CC1CC(C)(c2ccccc2)CO1 (stereo not drawn) [2,4-dimethyl-4-phenyltetrahydrofuran]	Negative	4.1				
C=CCCC(=O)/C=C/C1C(C)=CCCC1(C)C (stereo not drawn) [(E)-1-(2,6,6-trimethylcyclohex-2-en-1-yl)hepta-1,6-dien-3-one]	Negative	3	Good coverage			
O=CCC/C=C1\CC2CC1[C@H]1CCC[C@@H]21 (stereo partly drawn) [(E)-4-((3aS,7aS)-hexahydro-1H-4,7-methanoinden-5(6H)-ylidene)butanal]				Positive	2.5	
CC(=O)/C=C/C1C(C)=CCCC1(C)C (stereo not drawn) [(E)-4-(2,6,6-trimethyl-1-cyclohex-2-enyl)but-3-en-2-one]	Negative	4.5				
CCCCCC/C(C=O)=C\c1ccccc1 [(E)-2-benzylideneoctanal]	Negative	1.2				
C/C=C/c1ccc(O)c(OC)c1 [(E)-2-methoxy-4-(prop-1-en-1-yl)phenol]				Positive	4.5	
CC(=O)C(C)O (stereo not drawn) [3-hydroxybutan-2-one]				Positive	4	
CCCC1CCOC(C)S1 (stereo not drawn) [2-methyl-4-propyl-1,3-oxathiane]	Negative	1				
CC1CCC2(CCC(=O)O2)CC1 (stereo not drawn) [8-methyl-1-oxaspiro[4.5]decan-2-one]				Positive	2.7	
C/C=C/C(=O)C1=C(C)CCCC1(C)C [(E)-1-(2,6,6-trimethyl-1-cyclohexenyl)but-2-en-1-one]				Positive	2.8	Coverage
CC(=O)OCCC(C)CCC=C(C)C (stereo not drawn) [3,7-dimethyloct-6-en-1-yl acetate]	Negative	2	Low coverage			
CC(=O)CCC1=C(C)CCCC1(C)C [4-(2,6,6-trimethylcyclohex-1-en-1-yl)butan-2-one]	Negative	1				
COC(=O)c1ccccc1N [methyl 2-aminobenzoate]				Positive	4.3	
C=CCOC(=O)CCC1CCCCC1 [prop-2-enyl 3-cyclohexylpropanoate]	Negative	1.5				
Cc1occc(=O)c1O [3-hydroxy-2-methyl-4H-pyran-4-one]				Positive	4	
CCC(O)COC1CCCCC1C(C)(C)C (stereo not drawn) [1-((2-(tert-butyl)cyclohexyl)oxy)butan-2-ol]				Positive	2.3	Coverage
CCOC(=O)C(C)C [ethyl 2-methylpropanoate]				Positive	1	No effect
CC1(C)CCC[C@]2(C)[C@H]3CCO[C@]3(C)CC[C@@H]12 [(3aR,5aS,9aS,9bR)-3a,6,6,9a-tetramethyl-2,4,5,5a,7,8,9,9b-octahydro-1H-benzo[e][1]benzofuran]				Positive	1	No effect
CCCCOC(=O)C(C)OC(=O)CCC (stereo not drawn) [1-butoxy-1-oxopropan-2-yl butanoate]				Positive	1	No effect
CC1COCc2cc3c(cc21)C(C)(C)C(C)C3(C)C (stereo not drawn) [4,6,6,7,8,8-hexamethyl-1,3,4,6,7,8-hexahydrocyclopenta[g]isochromene]				Positive	3	
Cc1cc(CC(C)C)ccc1CCC=O [3-(4-(2-methylpropyl)-2-methylphenyl)propanal]				Positive	2.8	
CCCCCCC1C(=O)CCC1C(=O)OC (stereo not drawn) [methyl 2-hexyl-3-oxocyclopentane-1-carboxylate]	Negative	1				
Cc1ncsc1CCO [2-(4-Methyl-1,3-thiazol-5-yl)ethanoL]				Positive	1	No effect

Molecule	Impact on scalp MOC of fragrance composition ([1]; Table 4)	MO intensity [2, 3]	Scalp MOC of ingredient alone ([2]; Table 4, gas phase)	Impact on scalp MOC of fragrance composition ([1]; Table 3)	MO intensity [2, 4]	Scalp MOC of ingredient alone ([2]; Table 3, gas phase)
CCC(=O)O[C@H]1CC2CC1[C@H]1CC=C[C@@H]21 (stereo partly drawn) [(3aR,6S,7aS)-3a,4,5,6,7,7a-hexahydro-1H-4,7-methanoinden-6-yl propanoate]	Negative	1.3				
CC(C)=CCCC(C)CCO (stereo not drawn) [3,7-dimethyloct-6-en-1-ol]				Positive	2.5	
CC1C/C=C\CCCCCCCCCC(=O)C1 (stereo not drawn) [(Z)-3-methylcyclopentadec-5-enone]				Positive	2.1	
CC(=O)O[C@]1(C)CC[C@]23CC1C(C)(C)C2CC[C@@H]3C (stereo partly drawn) [(1S,6R,8aR)-1,4,4,6-tetramethyloctahydro-1H-5,8a-methanoazulen-6-yl acetate]				Positive	1	No effect
CC(C)CC1CC(C)(O)CCO1 (stereo not drawn) [tetrahydro-4-methyl-2-(2-methylpropyl)-2H-pyran-4-ol]	Negative	2.2	Low coverage			
CCCCC1CCC(=O)O1 (stereo not drawn) [5-butyloxolan-2-one]	Negative	3.8				
CCCCCCC1CCC(=O)O1 (stereo not drawn) [5-hexyloxolan-2-one]				Positive	3	
CC1=CCC(/C=C/C(C)C(C)O)C1(C)C (stereo not drawn) [(E)-3-methyl-5-(2,2,3-trimethylcyclopent-3-en-1-yl)pent-4-en-2-ol]				Positive	4.3	
CC1CC(C)(c2ccccc2)OC(C)O1 (stereo not drawn) [2,4,6-trimethyl-4-phenyl-1,3-dioxane]	Negative	1				
C=C(C)[C@@H]1CC=C(C)C(=O)C1 [(5R)-2-methyl-5-prop-1-en-2-ylcyclohex-2-en-1-one]	Negative	0	Enhances MO			
CC(CCO)CCc1ccccc1 (stereo not drawn) [3-methyl-5-phenylpentan-1-ol]				Positive	2	
CC(=O)OC/C=C(/C)CCC=C(C)C [(Z)-3,7-dimethylocta-2,6-dien-1-yl acetate]	Negative	1				
CC(C)C1CCC(CO)CC1 (stereo not drawn) [(4-isopropylcyclohexyl)methanol]				Positive	3	
CCC(C)(O)CCCC(C)C (stereo not drawn) [3,7-dimethyloctan-3-ol]	Negative	3				
CCCCCCCC1CCCC(=O)O1 (stereo not drawn) [6-heptyltetrahydro-2H-pyran-2-one]				Positive	3	
mercapto-para-menthan-3-one				Positive	1	No effect
CCC(=O)/C=C/C1C(C)=CCCC1(C)C (stereo not drawn) [(E)-1-(2,6,6-trimethylcyclohex-2-en-1-yl)pent-1-en-3-one]				Positive	3	
CCCCCCCCCCC=O [undecanal]	Negative	1	Enhances MO			
CC(CC=O)CCCC(C)(C)O (stereo not drawn) [7-hydroxy-3,7-dimethyloctanal]				Positive	2	
CC(C)(O)Cc1ccccc1 [2-methyl-1-phenylpropan-2-ol]	Negative	1				
COc1cc(C=O)ccc1OC(=O)C(C)C [4-formyl-2-methoxyphenyl 2-methylpropanoate]				Positive	1.5	
CCCc1ccc(O)c(OC)c1 [2-methoxy-4-propylphenol]				Positive	2	
C/C(=C\C(C)C)C(C)OC(C)(C)COC(=O)C1CC1 (stereo not drawn) [(E)-2-((3,5-dimethylhex-3-en-2-yl)oxy)-2-methylpropyl cyclopropanecarboxylate]	Negative	1				
